The results in this text go back to patent publication US11723877B2, “Microencapsulation process and product” (SPI PHARMA, INC., priority 2010, dated 2023).

Series [1] can be described thus: Acetaminophen dissolution, USP method (900 mL water, 50 rpm, Apparatus 2). It counts as physicochemical. Particulars: first of five data columns, no own time in head (taken as 0 min). On the procedure: Acetaminophen dissolution was compared between microcapsules prepared from Run #2 and Run #4, an uncoated acetaminophen standard and a commercial acetaminophen coated with ethylcellulose by USP dissolution method for Acetaminophen (900 mL water, 50 rpm, Apparatus 2).

The next series can be described thus: physchem. To be noted: aqueous buffer.
Series [2] can be described thus: Dissolution of orally dispersible ibuprofen powder, USP apparatus IV flow through cell, phosphate buffer pH 7.2. It counts as physicochemical. Particulars: phosphate buffer pH 7.2, 37° C., 16 mL/min, 900 mL, ODP 200 mg, average of two. The protocol:
A USP apparatus IV flow through cell was used to measure the dissolution of three orally dispersible powder blends of Ibuprofen. Powder blends were made up of: Example 6 (SPI Pharma); uncoated Ibuprofen 50 (BASF, Florham Park, N.J.); and Dasan Medichem (Soul, Korea) taste-masked Ibuprofen. Each sample was weighed and mixed by the process of spatulation until mixed. This mixture was passed through #30 mesh ASTM and packed in stick packs.
An amount of sample equivalent to contain 200 mg of Ibuprofen was weighed out and placed in the bead mixture of the flow through cell. At a rate of 16 ml/min, a 37° C. pH 7.2 phosphate buffer was pumped through cell and the effluent from the cell was collected in a reservoir vessel and samples removed for subsequent analysis in HPLC for Ibuprofen content at the time point specified. The data is an average of two determinations.

Series [3] can be described thus: Dissolution of orally dispersible acetaminophen powder, USP apparatus IV flow through cell, phosphate buffer pH 5.8. It counts as physicochemical. To be noted: phosphate buffer pH 5.8, 37° C., 16 mL/min, 900 mL, ODP 160 mg, average of two. An excerpt: A USP apparatus IV flow through cell was used to measure the dissolution of three orally dispersible powder blends of acetaminophen. Powder blends were made up of: Example 7 (SPI Pharma); uncoated Acetaminophen (Covidien, St. Louis, Mo.)) special granular; and Eurand (Dayton, Ohio) taste-masked Acetaminophen. Each sample was weighed and mixed by the process of spatulation until mixed. This mixture was passed through #30 mesh ASTM and packed in stick packs.
An amount of sample equivalent to contain 160 mg of Acetaminophen was weighed out and placed in the bead mixture of the flow through cell. At a rate of 16 ml/min, a 37° C. pH 5.8 phosphate buffer was pumped through cell and the effluent from the cell was collected in a reservoir vessel and samples removed for subsequent analysis in HPLC for Acetaminophen content at the time point specified. The data is an average of two determinations.

For the compound `CC(=O)Nc1ccc(O)cc1` [Uncoated Acetaminophen STD, Acetaminophen], the “Percent (%) Drug Released” value in series [1] was 0%.

In general, solubility refers to the concentration that dissolves in the medium under given conditions. The low end stands for a poorly soluble substance, the high end for a readily soluble substance. The compound `CC(C)Cc1ccc(C(C)C(=O)O)cc1` (centres unmarked) [uncoated ibuprofen, ibuprofen] displayed a solubility in “physchem” below 1000 µM.

With `CC(C)Cc1ccc(C(C)C(=O)O)cc1` (centres unmarked) [Plain API, Ibuprofen], the Ibuprofen dissolution % in series [2] (5 min) was 70%; in series [2] (10 min), 88%; in series [2] (20 min), 91%; in series [2] (30 min), 94%; in series [2] (45 min) it was 94%; in series [2] (60 min), 94%.

`CC(=O)Nc1ccc(O)cc1` [Uncoated Acetaminophen, Acetaminophen]: the Acetaminophen dissolution % is reported as 95% in series [3] (5 min); 96% in series [3] (10 min); 96% in series [3] (15 min); 96% in series [3] (30 min); 96% in series [3] (45 min); 96% in series [3] (60 min).
